PMC7187627 (Antimicrobial Agents and Chemotherapy, 2019)
“Also recorded” adds a separate entry of the source. Like-named read-outs stand apart in the source and are kept apart here.

Assay: Plasma pharmacokinetics, multiple-ascending-dose phase 1 study
Format: in vivo, human
Settings: for RAUC (accumulation ratio for AUC) / RCmax (accumulation ratio for Cmax): day 10 vs day 1; for half-life / Cmax / Vd/F / Tmax / AUC(0-t) / AUC: human, plasma; for Vd/F: read-out: Vz/F,ss
Protocol: This study was conducted in full accordance with the Declaration of Helsinki and good clinical practices (GCP) at Quintiles Phase One Services in Overland Park, KS. Subjects were randomized in a 4:1 fashion (8 active:2 placebo) in each cohort to receive 200 mg, 400 mg, or 600 mg of CRS3123 or matching placebo every 12 h for 10 days (https://clinicaltrials.gov/ct2/show/NCT02106338). Subjects fasted 1 h before and 2 h after administration of the study product with a minimum of 8 oz. (240 ml) of water. Water and noncaffeinated drinks (except grapefruit juice) during the study were not restricted. Informed consent was obtained before any study-related procedures and clinical evaluations were performed. All 30 randomized subjects completed the study; 24 subjects received CRS3123 and 6 subjects received placebo. There were no premature withdrawals or discontinuations.
After a screening period of up to 35 days, eligible subjects were admitted to the study center for baseline evaluations on day −1. On the morning of day 1, eligible subjects were randomized to receive either the study drug or placebo orally every 12 h through day 10. Subjects remained inpatient at the study center until discharge on day 12. During the inpatient period, subjects were monitored for safety and pharmacokinetics (PK). Subjects were followed for 2 additional outpatient visits at the study center, on days 18 ± 2 and 29 ± 2.
PK method development, validation, and sample testing for plasma, feces, and urine were performed at KCAS, LLC (Shawnee, KS). Plasma, urine, and fecal concentrations of CRS3123 were determined by means of validated, sensitive, and specific high-performance liquid chromatography/tandem mass spectrometric (HPLC-MS/MS) assays. The lower limits of quantification of CRS3123 in plasma, feces, and urine were 10.0 ng/ml, 60.0 ng/g, and 100.0 ng/ml, respectively. The validated urine PK assay measured total free CSR3123. Since the majority of urinary CRS3123 was excreted as glucuronide conjugates ([32]), an enzymatic cleavage step using glucuronidase was added to the process to convert the glucuronide conjugates to free CRS3123 for the urine analysis.
The PK population consisted of all subjects who received active study drug (CRS3123) and had at least one measured CRS3123 concentration at a scheduled PK time point after the start of study drug administration.
Pharmacokinetic parameters for plasma were derived using noncompartmental methods with Phoenix WinNonlin version 6.4 (Pharsight Corporation, Certara L.P., Princeton, NJ). PK parameters for urine and feces were derived using SAS version 9.4 (SAS Institute, Inc., Cary, NC). All statistical calculations and reporting were performed using SAS version 9.4. Graphics were prepared with SAS version 9.4 or SigmaPlot 12.5 (Systat Software, Inc., San Jose, CA).
(i) Plasma PK. Plasma concentrations of CRS3123 throughout the 12-h dosing interval on PK days (day 1 and day 10) were summarized using descriptive statistics for each treatment.
One-way analysis of variance (ANOVA) models were used to assess any differences in appropriate PK parameters between adjacent dose levels following a single dose (day 1) and multiple doses (day 10). An ANOVA model on the log-transformed PK parameters (AUC0–12 and Cmax on day 1; AUC0–tau and Cmax on day 10) with fixed effect for treatment was performed separately for the single-dose analysis and multiple-dose analysis. From these models, the least-squares (LS) means together with 95% confidence intervals (Cis) for each dose and the LS means with corresponding 90% CIs for all adjacent dose pairs were calculated. Transformed back from the logarithmic scale, geometric LS means with corresponding 90% CIs were provided for each dose and adjacent dose ratios following both single and multiple dosing. PK accumulation was presented using descriptive statistics, and achievement of steady state was assessed graphically. […]

[1] = 200 mg Q12h, day 10, geometric mean
[2] = 400 mg Q12h, day 10, geometric mean
[3] = 600 mg Q12h, day 10, geometric mean

SMILES: O=c1cc(NCCCN[C@@H]2CCOc3c(Br)cc(Br)cc32)[nH]c2ccsc12 [CRS3123]
- CL/F,ss [1]: 80.2 L/h
- Plasma Cmin,ss [1]: 85.2 ng/mL
- CL/F,ss (200 mg Q12h, day 10, median): 82.0 L/h
- Plasma Cmin,ss (200 mg Q12h, day 10, median): 76.2 ng/mL
- RAUC (accumulation ratio for AUC) (200 mg Q12h, geometric mean): 1.61
- RCmax (accumulation ratio for Cmax) (200 mg Q12h, geometric mean): 1.34
- RAUC (accumulation ratio for AUC) (200 mg Q12h, median): 1.54
- RCmax (accumulation ratio for Cmax) (200 mg Q12h, median): 1.11
- Plasma t1/2 (200 mg Q12h oral, day 1, median (minimum, maximum)): 3.0 (2.7, 3.7) h
- Plasma t1/2,ss (200 mg Q12h oral, day 10, median (minimum, maximum)): 4.6 (4.1, 7.0) h
- CL/F,ss [2]: 125 L/h
- Plasma Cmin,ss [2]: 112 ng/mL
- CL/F,ss (400 mg Q12h, day 10, median): 121 L/h
- Plasma Cmin,ss (400 mg Q12h, day 10, median): 122 ng/mL
- RAUC (accumulation ratio for AUC) (400 mg Q12h, geometric mean): 1.37
- RCmax (accumulation ratio for Cmax) (400 mg Q12h, geometric mean): 1.22
- RAUC (accumulation ratio for AUC) (400 mg Q12h, median): 1.21
- RCmax (accumulation ratio for Cmax) (400 mg Q12h, median): 1.19
- Plasma t1/2 (400 mg Q12h oral, day 1, median (minimum, maximum)): 3.6 (2.9, 4.3) h
- Plasma t1/2,ss (400 mg Q12h oral, day 10, median (minimum, maximum)): 5.0 (3.4, 7.7) h
- CL/F,ss [3]: 149 L/h
- Plasma Cmin,ss [3]: 160 ng/mL
- CL/F,ss (600 mg Q12h, day 10, median): 162 L/h
- Plasma Cmin,ss (600 mg Q12h, day 10, median): 161 ng/mL
- RAUC (accumulation ratio for AUC) (600 mg Q12h, geometric mean): 1.13
- RCmax (accumulation ratio for Cmax) (600 mg Q12h, geometric mean): 1.12
- RAUC (accumulation ratio for AUC) (600 mg Q12h, median): 1.15
- RCmax (accumulation ratio for Cmax) (600 mg Q12h, median): 1.05
- Plasma t1/2 (600 mg Q12h oral, day 1, median (minimum, maximum)): 2.9 (2.6, 4.0) h
- systemic uptake after oral dosing (200 to 600 mg twice daily): limited but detectable systemic uptake
- dose proportionality of plasma exposure (200 to 600 mg, day 1 and day 10): less than dose proportional
- accumulation in plasma following multiple twice-daily dosing (10 days twice daily, trough concentration profiles): minimal accumulation; also recorded: essentially no accumulation
- power model slope (β) estimates for AUC and Cmax (day 1 and day 10, 200 to 600 mg): well below one
- increase of geometric mean AUC0–12 with a 3-fold increase in dose (first dose, 200 mg to 600 mg): approximately 2.3 fold
- increase of geometric mean Cmax with a 3-fold increase in dose (first dose, 200 mg to 600 mg): ~1.9 fold
- half-life (oral, 200 mg, 200 mg Q12h, day 1, geometric mean, read-out: Plasma t1/2 (converted)): 3.01 h
- Cmax (oral, 200 mg, 200 mg Q12h, day 1, median, read-out: Plasma Cmax): 342 ng/mL
- half-life (oral, 200 mg, 200 mg Q12h, day 10, geometric mean, read-out: Plasma t1/2,ss (converted)): 4.71 h
- Vd/F (oral, 200 mg, 200 mg Q12h, day 10, geometric mean): 591 L
- Cmax (oral, 200 mg, 200 mg Q12h, day 10, median, read-out: Plasma Cmax,ss): 492 ng/mL
- Vd/F (oral, 200 mg, 200 mg Q12h, day 10, median): 578 L
- half-life (oral, 400 mg, 400 mg Q12h, day 1, geometric mean, read-out: Plasma t1/2 (converted)): 3.53 h
- Cmax (oral, 400 mg, 400 mg Q12h, day 1, median, read-out: Plasma Cmax): 504 ng/mL
- half-life (oral, 400 mg, 400 mg Q12h, day 10, geometric mean, read-out: Plasma t1/2,ss (converted)): 5.19 h
- Vd/F (oral, 400 mg, 400 mg Q12h, day 10, geometric mean): 937 L
- Cmax (oral, 400 mg, 400 mg Q12h, day 10, median, read-out: Plasma Cmax,ss): 603 ng/mL
- Vd/F (oral, 400 mg, 400 mg Q12h, day 10, median): 917 L
- half-life (oral, 600 mg, 600 mg Q12h, day 1, geometric mean, read-out: Plasma t1/2 (converted)): 3.04 h
- Cmax (oral, 600 mg, 600 mg Q12h, day 1, median, read-out: Plasma Cmax): 642 ng/mL
- half-life (oral, 600 mg, 600 mg Q12h, day 10, geometric mean, read-out: Plasma t1/2,ss (converted)): 6.32 h
- Vd/F (oral, 600 mg, 600 mg Q12h, day 10, geometric mean): 1400 L
- Cmax (oral, 600 mg, 600 mg Q12h, day 10, median, read-out: Plasma Cmax,ss): 674 ng/mL
- Vd/F (oral, 600 mg, 600 mg Q12h, day 10, median): 1410 L
- Tmax (oral, 600 mg, after first dose, day 1, range across the 3 dose groups (200, 400, 600 mg), read-out: median time to maximum concentration (Tmax)): 7200 to 10800 s
- half-life (oral, after 10 days twice-daily, range across the three dose groups, read-out: geometric mean t1/2,ss): 5 to 6 h
- Tmax (oral, after 10 days twice-daily, range across the three dose groups, read-out: median Tmax at steady state (Tmax,ss)): 3600 to 7200 s
- half-life (oral, after first dose, day 1, range across the 3 dose groups, read-out: geometric mean half-life (t1/2)): 3 to 4 h
- AUC(0-t) (oral, 200 mg Q12h, day 1, median, read-out: Plasma AUC(0-12)): 1230 ng·h/mL
- AUC (oral, 200 mg Q12h, day 10, median, read-out: Plasma AUC(0-tau)): 2470 ng·h/mL
- AUC(0-t) (oral, 400 mg Q12h, day 1, median, read-out: Plasma AUC(0-12)): 2510 ng·h/mL
- AUC (oral, 400 mg Q12h, day 10, median, read-out: Plasma AUC(0-tau)): 3310 ng·h/mL
- AUC(0-t) (oral, 600 mg Q12h, day 1, median, read-out: Plasma AUC(0-12)): 3630 ng·h/mL
- AUC (oral, 600 mg Q12h, day 10, median, read-out: Plasma AUC(0-tau)): 3740 ng·h/mL
- Cmax (po, 200 mg, 200 mg Q12h oral, day 1, geometric mean (%CV), read-out: Plasma Cmax): 352 ng/mL
- Tmax (po, 200 mg, 200 mg Q12h oral, day 1, median (minimum, maximum), read-out: Plasma Tmax): 7200 s
- half-life (po, 200 mg, 200 mg Q12h oral, day 1, median (minimum, maximum), read-out: Plasma t1/2 (converted)): 2.96 h
- Cmax (po, 200 mg, 200 mg Q12h oral, day 10, geometric mean (%CV), read-out: Plasma Cmax,ss): 470 ng/mL
- Tmax (po, 200 mg, 200 mg Q12h oral, day 10, median (minimum, maximum), read-out: Plasma Tmax,ss): 5400 s
- half-life (po, 200 mg, 200 mg Q12h oral, day 10, median (minimum, maximum), read-out: Plasma t1/2,ss (converted)): 4.59 h
- Cmax (po, 400 mg, 400 mg Q12h oral, day 1, geometric mean (%CV), read-out: Plasma Cmax): 507 ng/mL
- Tmax (po, 400 mg, 400 mg Q12h oral, day 1, median (minimum, maximum), read-out: Plasma Tmax): 10800 s
- half-life (po, 400 mg, 400 mg Q12h oral, day 1, median (minimum, maximum), read-out: Plasma t1/2 (converted)): 3.61 h
- Cmax (po, 400 mg, 400 mg Q12h oral, day 10, geometric mean (%CV), read-out: Plasma Cmax,ss): 615 ng/mL
- Tmax (po, 400 mg, 400 mg Q12h oral, day 10, median (minimum, maximum), read-out: Plasma Tmax,ss): 7200 s
- half-life (po, 400 mg, 400 mg Q12h oral, day 10, median (minimum, maximum), read-out: Plasma t1/2,ss (converted)): 5.01 h
- Cmax (po, 600 mg, 600 mg Q12h oral, day 1, geometric mean (%CV), read-out: Plasma Cmax): 654 ng/mL
- Tmax (po, 600 mg, 600 mg Q12h oral, day 1, median (minimum, maximum), read-out: Plasma Tmax): 7200 s
- half-life (po, 600 mg, 600 mg Q12h oral, day 1, median (minimum, maximum), read-out: Plasma t1/2 (converted)): 2.85 h
- Cmax (po, 600 mg, 600 mg Q12h oral, day 10, geometric mean (%CV), read-out: Plasma Cmax,ss): 731 ng/mL
- Tmax (po, 600 mg, 600 mg Q12h oral, day 10, median (minimum, maximum), read-out: Plasma Tmax,ss): 3600 s
- half-life (po, 600 mg, 600 mg Q12h oral, day 10, median (minimum, maximum), read-out: Plasma t1/2,ss (converted)): 6.1 h
- AUC(0-t) (200 mg Q12h oral, day 1, geometric mean (%CV), read-out: Plasma AUC (AUC0–12)): 1550 ng·h/mL
- AUC (200 mg Q12h oral, day 10, geometric mean (%CV), read-out: Plasma AUC (AUC0–tau)): 2500 ng·h/mL
- AUC(0-t) (400 mg Q12h oral, day 1, geometric mean (%CV), read-out: Plasma AUC (AUC0–12)): 2340 ng·h/mL
- AUC (400 mg Q12h oral, day 10, geometric mean (%CV), read-out: Plasma AUC (AUC0–tau)): 3200 ng·h/mL
- AUC(0-t) (600 mg Q12h oral, day 1, geometric mean (%CV), read-out: Plasma AUC (AUC0–12)): 3560 ng·h/mL
- AUC (600 mg Q12h oral, day 10, geometric mean (%CV), read-out: Plasma AUC (AUC0–tau)): 4030 ng·h/mL
